According to patent US7834061B2, “Process for producing 1,4-dihydroxy-2-naphthoic acid” (Meiji Dairies Corporation, priority 2001, dated 2010):

Legend:
ICR male mice = assay: Animal model with osteoporosis induced by FK-506; format: in vivo; details: DHNA 75 μg/kg orally every day, FK-506 1 mg/kg i.p. for 10 weeks, vs control group (FK 506 (+)) (FIG. 5)
Procedure: As has been known, administration of FK-506, which is known as an immunosuppressive agent, to an animal induces osteoporosis-like conditions (J. Hard Tissue Biology, 103-107, 10 (2), 2001). […] FK-506 (1 mg/kg) was intraperitoneally administered to ICR male mice (eight weeks old) for 10 consecutive weeks. During the 10-week FK-506 administration, a feed (CRF-1, product of Oriental Yeast Co., Ltd.) was arbitrarily ingested into the mice, and DHNA (75 μg/kg) which had been suspended in a 1% aqueous DMSO (dimethyl sulfoxide) solution was orally administered to each of the mice every day.

[1] = tested on: Human osteoblasts (SaM-1); assay: Calcification of osteoblasts (Ca content of extracellular matrix, OCPC method); format: cell-based; details: DHNA 10^-7 M to 10^-5 M, 2 mM α-glycerophosphoric acid, culturing for 32 days, vs 0.1% DMSO control (FIG. 4)
Procedure: Human osteoblasts (SaM-1), which had been cultured from long bone periosteum of a person obtained during fracture surgery, were employed. […] SaM-1 has been known to promote calcification in the presence of 2 mM of α-glycerophosphoric acid in a 1α, 25 (OH)2D3 concentration-dependent manner (Koshihara, Y. et al.: Biochem. Biophys. Res. commun., 145: 651-657, 1987).
The above-obtained SaM-1 cells of 18 PDL (population doubling level) were inoculated into a 12-well plate, and cultured until the cells reached a confluent state. Subsequently, α-glycerophosphoric acid, which is a calcification promoting agent, was added to the resultant culture broth such that the α-glycerophosphoric acid content became 2 mM. DHNA (10^−7 M to 10^−5 M) was added to the culture broth, followed by culturing for 32 days. For a control, DMSO (a solvent) was added to the culture broth such that the DMSO content became 0.1%. […]
The Ca content of extracellular matrix was quantified by use of a kit (Calcium C Test Wako) based on the o-cresolphthalein complexone method (OCPC method) (Gitleman, H. J.: Anal. Biochem., 18: 520-531, 1967).
After completion of culturing, the resultant cells were washed with a Hanks' solution. […] Thereafter, the resultant reaction mixture was subjected to measurement by use of an absorbance meter (570 nm) (FIG. 4).

O=C(O)c1cc(O)c2ccccc2c1O [DHNA, 1,4-dihydroxy-2-naphthoic acid]
bone density (ICR male mice): significantly higher than that of the mice in the control group
degree of calcification (amount of Ca) [1]: promotes calcification in a concentration-dependent manner
